Biological target: T1, PTP1B catalytic domain, C215S (Homo sapiens, UniProt P18031, C215S)
T1 sequence (P18031 1-229 C215S): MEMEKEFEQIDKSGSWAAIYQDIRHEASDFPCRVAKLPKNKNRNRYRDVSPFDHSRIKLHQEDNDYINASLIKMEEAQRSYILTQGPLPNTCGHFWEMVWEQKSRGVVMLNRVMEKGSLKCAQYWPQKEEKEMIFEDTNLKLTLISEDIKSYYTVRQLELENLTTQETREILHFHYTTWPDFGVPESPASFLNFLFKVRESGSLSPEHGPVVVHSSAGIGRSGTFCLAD
Experiment: biochemical
Type: binding
Conditions: competitive FP titration vs CF-ppIRS1 100 nM, protein fixed, unlabelled peptide varied; n = 3 technical replicates
Excerpt: The two SH2 domains of PI3KR1 (UniProt P27986; nSH2: 321−433 cSH2: 614–724) were cloned from HEK293T cDNA pool, and subsequently ligated into a modified pET vector encoding maltose binding protein (MBP) tag on the N-terminal and a hexa-His tag on the C-terminal end of the construct. Similarly, the catalytic, tyrosine phosphatase domains of PTPRε (P23469 first domain: 107–399) and PTP1B (P18031; 1–229) were cloned from a HEK293T cDNA pool, and inserted into a pBH4 vector encoding an N-terminal His6 tag (for the final binding experiments, an MBP-tagged version of PTPRε was employed). […] Wild-type C-terminal FLAG-tagged human IRS1 was cloned between HindIII-NotI sites of pcDNA3.1(+) vector (#V79020 Invitrogen, Waltham MA USA). Ser/Ala mutant IRS1 was generated by replacing the region of S616/S636/S666/S736 positions with a cassette carrying S616A/S636A/S666A/S736A mutations. All constructs were validated by complete Sanger sequencing before protein expression and purification. The oligonucleotide sequences used are shown on Supplementary table 4.
Fluorescence polarization was always measured in triplicates, on black Corning low volume round bottom 384-well plates (with 10 ul volumes), using a BioTek Cytatation 5 reader, with the green fluorescent protein (GFP) cube filter set (ex: 485/20, em: 528/20, gain: 50, height: 7.5). Fluorescence polarization data was evaluated on Origin 2018. The dissociation constants (Kd) were determined by using the appropriate quadratic and cubic equations inserted as a user-defined function and applying nonlinear fit until convergence. The fitting formulae are shown at Supplementary note 1. Kd ratio distributions for Fig. 6 were calculated using a Monte-Carlo approach (Supplementary note 2).
Supplementary note 1. Curve fitting of fluorescence polarization (FP) measurements.
To evaluate polarization values from direct and competitive titrations, we used the following fitting formulae in Origin 2018, as detailed below.
Direct titration curves were fitted according to the following formula: […]
Where Imin is the minimal anisotropy, Imax is the (asymptotically estimated) maximal intensity. K0 is the starting concentration of the protein, while T0 is the (fixed) concentration of the labelled peptide and Kd is the dissociation constant.
Competitive titration curves were fitted with a different formula (In addition to those defined above, constants KdT KdB B0 T0 and D0 here refer to the Kd derived from the direct titration, the unknown Kd of the analyte, the labelled peptide concentration, the competitor peptide concentration as well as the protein concentration, respectively).
The ± sign refers to two different scenarios, depending on the sign of discriminant (KdT > KdB or […]). For unknown analytes, the choice of sign is not arbitrary, as the fitting will not converge unless the appropriate formula is chosen: […]
Where A, B and C correspond to the following expressions: […]

Compound | Kd
CSCC[C@H](NC(=O)[C@@H]1CCCN1C(=O)[C@H](CCSC)NC(=O)[C@H](Cc1ccc(OP(=O)(O)O)cc1)NC(=O)[C@H](CC(=O)O)NC(=O)CNC(=O)[C@H](CO)NC(=O)CNC(=O)[C@H](CCCCN)NC(=O)[C@H](CCCNC(=N)N)NC(=O)CN)C(=O)N[C@@H](CO)C(=O)N1CCC[C@H]1C(=O)N[C@@H](CCCCN)C(=O)N[C@@H](CO)C(=O)O [p0IRS1] | 1140 ± 85.1 nM
CSCC[C@H](NC(=O)[C@@H]1CCCN1C(=O)[C@H](CCSC)NC(=O)[C@H](Cc1ccc(OP(=O)(O)O)cc1)NC(=O)[C@H](CC(=O)O)NC(=O)CNC(=O)[C@H](CO)NC(=O)CNC(=O)[C@H](CCCCN)NC(=O)[C@H](CCCNC(=N)N)NC(=O)CN)C(=O)N[C@@H](COP(=O)(O)O)C(=O)N1CCC[C@H]1C(=O)N[C@@H](CCCCN)C(=O)N[C@@H](CO)C(=O)O [ppIRS1] | 61.3 ± 10.2 nM

From article PMC9481563, “Structural insights into the pSer/pThr dependent regulation of the SHP2 tyrosine phosphatase in insulin and CD28 signaling” (Nature Communications, 2022)
